Test results: patent US20190142893A1, “Electron, Radical, or Reactive Oxygen Species-Scavenging Agent Based Therapy of Inborn Errors of Fatty Acid Oxidation and Oxidative Phosphorylation” (University of Pittsburgh- Of the Commonwealth System of …, priority 2016, published 2019)

Key:
Assay type in all cases: cell-based, human
[1] = system: VLCAD deficient fibroblasts (Fb671, Fb773, Fb834, Fb833); test: Superoxide production (MitoSOX Red, flow cytometry) in VLCAD deficient fibroblasts; details: patient cells, media without glucose 48 h, after 24 h of treatment; FIGS. 27 and 28
Procedure: ROS generation: control and patient fibroblasts were cultivated in normal media or without glucose for 48 hours, then incubated for 15 min with MitoSox Red (Life Technologies). Fluorescence was evaluated by flow cytometry.
(§1) Cells were grown in Dulbecco's Modified Eagle Medium (DMEM), Corning Life Sciences, Manassas, Va., containing high glucose levels or in DMEM devoid of glucose for 48-72 h. Both media were supplemented with glutamine, 10% fetal bovine serum, 4 mM glutamine, 100 IU penicillin and 100 μg/mL streptomycin, Corning Life Sciences, Manassas, Va.
(§2) Cells were treated with different compounds in different concentrations 24 or 48 h before the assays. The compounds used were N-acetylcysteine (1 mM), bezafibrate (600 μM), resveratrol (75 μM), MiloQ (200 nM), trolox (1 mM) and JP4-039 (40 and 200 nM).
(§3) Cell suspension containing 1×10^5 cells per mL were incubated for 25 min at 37° C. with 150 nM Mitotracker Green, Invitrogen, Grand Island, N.Y., for mitochondrial mass evaluation or for 15 min at 37° C. with 5 μM MitoSOX Red, Invitrogen, Grand Island, N.Y., for superoxide production measurement. After incubation, 10,000 cells samples were analyzed in a Becton Dickinson FACSAria II flow cytometer, BD Biosciences, San Jose, Calif.

[2] = system: FAO deficient fibroblasts; test: Superoxide production (MitoSOX dye) in FAO deficient fibroblasts; details: FAO deficient fibroblasts cultured in absence of glucose 48-72 h
Procedure: FAO deficient fibroblasts were cultured in the absence of glucose for 48-72 h to shift to fatty acids as the energy source. Oxygen consumption rate (OCR) was monitored by a Seahorse XF analyzer (See FIG. 23). Mitochondrial mass was examined by MitoTracker Green and ROS generation by MitoSOX dye. Protein immunocontent was evaluated by western blotting. […] Testing of XJB-5-131 was conducted essentially as described for JP4-039.
as §3

[3] = system: VLCAD deficient fibroblasts (Fb671, Fb773, Fb834); test: Oxygen consumption rate (Seahorse analyzer) in VLCAD deficient fibroblasts; details: FB671, media without glucose, FIG. 25
Procedure: Oxygen consumption assay: Fibroblasts controls and from patients with VLCAD deficiency were cultivated in normal media or in the absence of glucose for 72 hours. The oxygen consumption was monitored by a Seahorse XFe96 Extracellular Flux Analyzer (Seahorse Bioscience, Billerica, Mass.).
as §1, §2
Oxygen consumption rate (OCR) was measured with a Seahorse XF^c96 Extracellular Flux Analyzer (Seahorse Bioscience, Billerica, Mass.). The apparatus contains a fluorophore that is sensitive to changes in oxygen concentration, which enables it to accurately measure the rate at which cytochrome c oxidase (complex IV) reduces one O2 molecule to two H2O molecules during OXPHOS. Cells were seeded in 96-well Seahorse tissue culture microplates in growth media at a density of 80,000 cells per well. To ensure equal cell numbers, cells were seeded in cell culture plates pre-coated with Cell-Tak (BD Biosciences, San Jose, Calif.). All cell lines were measured with four to six wells per cell line. Then, the entire experiments were repeated. Before running the Seahorse assay, cells were incubated for 1 h without CO2 in unbuffered DMEM. Initial OCR was measured to establish a baseline (basal respiration). Reserve capacity was also determined after the injection of 300 nM carbonyl cyanide 4-(trifluoromethoxy) phenylhydrazone (FCCP), Seahorse XF Cell Mito Stress Test Kit, Santa Clara, Calif. Data were reported in pmol/min for OCR.

| SMILES | Superoxide generation (increased levels in VLCAD deficient cells) [1] | Increased superoxide production [2] | Reserved capacity (oxygen consumption) ([3]; 40 nM) | Basal respiration (oxygen consumption) ([3]; 200 nM) | Reserved capacity (oxygen consumption) ([3]; 200 nM) |
| --- | --- | --- | --- | --- | --- |
| COC1=C(OC)C(=O)C(CCCCCCCCCC[P+](c2ccccc2)(c2ccccc2)c2ccccc2)=C(C)C1=O [MitoQ] | JP4-039 was the only antioxidant able to decrease superoxide generation |  |  |  |  |
| CC(=O)N[C@@H](CS)C(=O)O [N-acetylcysteine] | JP4-039 was the only antioxidant able to decrease superoxide generation |  |  |  |  |
| Oc1ccc(C=Cc2cc(O)cc(O)c2)cc1 [resveratrol] | JP4-039 was the only antioxidant able to decrease superoxide generation |  |  |  |  |
| CC(C)C[C@@H](/C=C/[C@H](Cc1ccccc1)C(=O)N1CCC[C@H]1C(=O)N[C@H](C(=O)N[C@@H](CCCNC(=O)OCc1ccccc1)C(=O)NC1CC(C)(C)N([O])C(C)(C)C1)C(C)C)NC(=O)OC(C)(C)C [XJB-5-131] |  | prevented | improves | improved | improves |
